{"source": "patent US20100022572A1", "about": "“NOVEL SPIRO COMPOUND AND MEDICINE COMPRISING THE SAME” (KOWA COMPANY, LTD., priority 2008, published 2010)", "key": {"human 11β-HSD1": {"target": "T1, human 11β-HSD1 (Homo sapiens, UniProt P28845)", "T1 construct": "The obtained PCR products of about 0.9 kbp, 1.2 kbp, and 0.9 kbp were subcloned into an expression vector pcDNA3.1+/Zeo; made in house", "T1 sequence (P28845 whole entry)": "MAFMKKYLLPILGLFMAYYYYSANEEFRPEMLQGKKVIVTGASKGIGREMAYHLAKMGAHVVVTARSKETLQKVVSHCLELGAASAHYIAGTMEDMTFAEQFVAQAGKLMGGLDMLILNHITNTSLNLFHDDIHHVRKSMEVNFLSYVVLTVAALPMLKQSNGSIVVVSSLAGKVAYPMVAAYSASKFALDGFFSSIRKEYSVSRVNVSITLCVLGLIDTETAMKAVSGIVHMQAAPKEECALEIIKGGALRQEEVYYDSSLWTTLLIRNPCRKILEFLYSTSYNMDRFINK", "test": "Assay of enzyme inhibitory activity, human 11β-HSD1 (lysate of stably expressing HEK293 cells, cortisol ELISA)", "assay_type": "biochemical", "details": "Table 1; human 11β-HSD1, cell lysate, 100 nmol/L substrate, 37° C. 1 hour", "description": "(§1) Human 11β-HSD1-, human 11β-HSD2- and mouse 11β-HSD1-inhibitory effect • 1. Human 11β-HSD1-, Human 11β-HSD2- and Mouse 11β-HSD1-Gene Clonings and Establishment of Stably Expressing Cells\n(§2) Human 11β-HSD1-, human 11β-HSD2-, and mouse 11β-HSD1-gene clonings were conducted using as a template a reverse transcription product of human-liver RNA, human-kidney RNA (CELL APPLICATIONS), and mouse-kidney RNA respectively, by means of PCR cloning with reference to nucleotide sequences of Genbank Accession Nos. NM_005525, NM_000196, and NM_008288. The obtained PCR products of about 0.9 kbp, 1.2 kbp, and 0.9 kbp were subcloned into an expression vector pcDNA3.1+/Zeo (Invitrogen).\n(§3) Human 11β-HSD1- and human 11β-HSD2-expressing vectors were transfected into human kidney-derived cell line, HEK293 cells, using a transfection reagent, jet PEI (Funakoshi). Mouse 11β-HSD1 was transfected to Chinese hamster ovary-derived cell line, CHO-K1 cells. Selection was conducted with 200-400 μg/mL of zeocine (Invitrogen) to provide stably expressing-cell clones. The stably expressing cells were suspended in buffer solution A (20 mmol/L Tris-HCl, pH 7.4, 250 mmol/L sucrose, 1 mmol/L EGTA, 1 mmol/L EDTA, 1 mmol/L MgCl2), sonicated, and then stored at −80° C. • 2. Assay of Enzyme Inhibitory Activity\n(§4) An enzymatic reaction was conducted using a polystyrene 96-well plate. Each well was added with 1 μL of a test agent dissolved in DMSO and then diluted (0.003 to 3 mmol/L), and further added with 10 μL of cell lysate diluted to a concentration of 0.1 mg/mL to 0.4 mg/mL. Next, 90 μL of buffer solution A containing substrate (100 nmol/L cortisone or cortisol) and coenzyme (400 μmol/L NADPH or NAD+) was added and the mixture was incubated at 37° C. for 1 hour. The enzymatic reaction was stopped by treating at 95° C. for 3 minutes. Cortisol that was present in the reaction solution was determined by a competitive ELISA shown below.\n(§5) Anti-rabbit IgG antibody (Chemi-con) diluted to 2 μg/mL with carbonate buffer solution (pH 9.6) was added in 100 μL each to a 96-well immuno plate (Nunc) and immobilized by an incubation at 4° C. overnight. 50 μL of enzymatic reaction solution was put onto the plates, and further, anti-cortisol antibody (Cosmo Bio) and HRP-labeled cortisol (Cosmo Bio), diluted with buffer solution B (25 mmol/L Tris-HCl pH 7.4, 137 mmol/L NaCl, 2.68 mmol/L KCl), were added in 50 μL respectively and incubated at 4° C. overnight. After washed three times with buffer solution B containing 0.05% Tween 20, the plates were allowed to develop color by adding 100 μL of color reagent, TMB (Moss). The color reaction was stopped by 25 μL of 1 mol/L sulfuric acid and the absorbance was determined at 450 nm with a microplate reader (Molecular Device, VersaMax).\nThe values of human 11β-HSD1, human 11β-HSD2, and mouse 11β-HSD1 activities were subtracted from 100, and the resultant values were regarded as the respective 11β-HSD inhibition rates of example compounds. For each example compound, the value of 50% inhibitory concentration (IC50) was calculated from 11β-HSD inhibition rates at plural concentrations, for 11β-HSD1 and activities."}, "human 11β-HSD2": {"target": "T2, human 11β-HSD2 (Homo sapiens, UniProt P80365)", "T2 construct": "The obtained PCR products of about 0.9 kbp, 1.2 kbp, and 0.9 kbp were subcloned into an expression vector pcDNA3.1+/Zeo; made in house", "T2 sequence (P80365 1-405)": "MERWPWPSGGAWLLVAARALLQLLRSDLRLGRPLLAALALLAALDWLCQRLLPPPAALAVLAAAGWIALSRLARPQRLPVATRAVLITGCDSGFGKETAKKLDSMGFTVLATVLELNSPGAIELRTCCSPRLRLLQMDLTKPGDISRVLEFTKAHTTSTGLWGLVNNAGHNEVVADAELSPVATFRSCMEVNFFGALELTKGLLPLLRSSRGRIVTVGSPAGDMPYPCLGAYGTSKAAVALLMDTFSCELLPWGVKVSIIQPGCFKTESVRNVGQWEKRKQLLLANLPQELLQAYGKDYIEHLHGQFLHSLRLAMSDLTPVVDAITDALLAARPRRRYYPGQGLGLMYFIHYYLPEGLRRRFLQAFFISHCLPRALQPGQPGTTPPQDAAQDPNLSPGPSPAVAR", "test": "Assay of enzyme inhibitory activity, human 11β-HSD2 (lysate of stably expressing HEK293 cells, cortisol ELISA)", "assay_type": "biochemical", "details": "Table 1; human 11β-HSD2, cell lysate, 100 nmol/L substrate, 37° C. 1 hour", "description": "as §1, §2, §3, §4\nas §5, with “VersaMax). […]” for “VersaMax).”"}}}
{"compound": "CC(C)C1=Cc2ccccc2C12CCN(C(=O)COc1ccccc1C(F)(F)F)CC2", "note": "[Example 19, 1-[2-isopropylspiro(indene-1,4′-piperidine)-1′-yl]-2-[2-(trifluoromethyl)phenoxy]ethanone]", "values": [{"measurement": "IC50", "setting": "human 11β-HSD1", "result": 0.34, "unit": "µM"}]}
{"compound": "CCc1ccccc1OCC(=O)N1CCC2(C=Cc3ccccc32)CC1", "note": "[Example 3, 2-(2-ethylphenoxy)-1-[spiro(indene-1,4′-piperidine)-1′-yl]ethanone]", "values": [{"measurement": "IC50", "setting": "human 11β-HSD1", "result": 0.72, "unit": "µM"}, {"measurement": "IC50", "setting": "human 11β-HSD2", "result": "> 30", "unit": "µM"}]}
{"compound": "CCC1=Cc2ccccc2C12CCN(C(=O)COc1ccccc1C(F)(F)F)CC2", "note": "[Example 17, 1-[2-ethylspiro(indene-1,4′-piperidine)-1′-yl]-2-[2-(trifluoromethyl)phenoxy]ethanone]", "values": [{"measurement": "IC50", "setting": "human 11β-HSD1", "result": 0.048, "unit": "µM"}]}
{"compound": "O=C(COc1ccccc1C(F)(F)F)N1CCC2(CC1)c1ccccc1CC2O", "note": "(centres unmarked) [Example 11, 1-[2-hydroxy-2,3-dihydrospiro(indene-1,4′-piperidine)-1′-yl]-2-[2-(trifluoromethyl)phenoxy]ethanone]", "values": [{"measurement": "IC50", "setting": "human 11β-HSD1", "result": 0.23, "unit": "µM"}]}
{"compound": "O=C(COc1ccccc1C(F)(F)F)N1CCC2(CC1)C(Cl)=Cc1ccccc12", "note": "[Example 22, 1-[2-chlorospiro(indene-1,4′-piperidine)-1′-yl]-2-[2-(trifluoromethyl)phenoxy]ethanone]", "values": [{"measurement": "IC50", "setting": "human 11β-HSD1", "result": 0.03, "unit": "µM"}]}
{"compound": "CC1=CC2(CCN(C(=O)COc3ccccc3C(F)(F)F)CC2)c2ccccc21", "note": "[Example 24, 1-[3-methylspiro(indene-1,4′-piperidine)-1′-yl]-2-[2-(trifluoromethyl)phenoxy]ethanone]", "values": [{"measurement": "IC50", "setting": "human 11β-HSD1", "result": 0.066, "unit": "µM"}]}
{"compound": "O=C(COc1ccccc1C(F)(F)F)N1CCC2(CC1)C(C1CC1)=Cc1ccccc12", "note": "[Example 20, 1-[2-cyclopropylspiro(indene-1,4′-piperidine)-1′-yl]-2-[2-(trifluoromethyl)phenoxy]ethanone]", "values": [{"measurement": "IC50", "setting": "human 11β-HSD1", "result": 0.088, "unit": "µM"}]}
{"compound": "O=C(COc1ccccc1C(F)(F)F)N1CCC2(C=Cc3ccccc32)CC1", "note": "[Example 1, 1-[spiro(indene-1,4′-piperidine)-1′-yl]-2-[2-(trifluoromethyl)phenoxy]ethanone]", "values": [{"measurement": "IC50", "setting": "human 11β-HSD1", "result": 0.029, "unit": "µM"}, {"measurement": "IC50", "setting": "human 11β-HSD2", "result": "> 30", "unit": "µM"}]}
{"compound": "O=C1CC2(CCN(C(=O)COc3ccccc3C(F)(F)F)CC2)c2ccccc21", "note": "[Example 13]", "values": [{"measurement": "IC50", "setting": "human 11β-HSD1", "result": 1, "unit": "µM"}]}
{"compound": "CCCC1=Cc2ccccc2C12CCN(C(=O)COc1ccccc1C(F)(F)F)CC2", "note": "[Example 18, 1-[2-propylspiro(indene-1,4′-piperidine)-1′-yl]-2-[2-(trifluoromethyl)phenoxy]ethanone]", "values": [{"measurement": "IC50", "setting": "human 11β-HSD1", "result": 0.24, "unit": "µM"}]}
{"compound": "O=C(COc1ccccc1C(F)(F)F)N1CCC2(CC1)C(=O)Cc1ccccc12", "note": "[Example 12, 1′-[2-[2-(trifluoromethyl)phenoxy]acetyl]spiro(indene-1,4′-piperidine)-2(3H)-one]", "values": [{"measurement": "IC50", "setting": "human 11β-HSD1", "result": 0.077, "unit": "µM"}, {"measurement": "IC50", "setting": "human 11β-HSD2", "result": "> 30", "unit": "µM"}]}
{"compound": "O=C(COc1ccccc1C(F)(F)F)N1CCC2(CCc3ccccc32)CC1", "note": "[Example 10, 1-[2,3-dihydrospiro(indene-1,4′-piperidine)-1′-yl]-2-[2-(trifluoromethyl)phenoxy]ethanone]", "values": [{"measurement": "IC50", "setting": "human 11β-HSD1", "result": 0.025, "unit": "µM"}]}
{"compound": "O=C(COc1ccccc1I)N1CCC2(C=Cc3ccccc32)CC1", "note": "[Example 4, 2-(2-iodophenoxy)-1-[spiro(indene-1,4′-piperidine)-1′-yl]ethanone]", "values": [{"measurement": "IC50", "setting": "human 11β-HSD1", "result": 0.11, "unit": "µM"}, {"measurement": "IC50", "setting": "human 11β-HSD2", "result": "> 30", "unit": "µM"}]}
{"compound": "CC1Cc2ccccc2C12CCN(C(=O)COc1ccccc1C(F)(F)F)CC2", "note": "(centres unmarked) [Example 25, 1-[2-methyl-2,3-dihydrospiro(indene-1,4′-piperidine)-1′-yl]-2-[2-(trifluoromethyl)phenoxy]ethanone]", "values": [{"measurement": "IC50", "setting": "human 11β-HSD1", "result": 0.12, "unit": "µM"}]}
{"compound": "O=C(COc1ccccc1C(F)(F)F)N1CCC2(CC1)C(Br)=Cc1ccccc12", "note": "[Example 23, 1-[2-bromospiro(indene-1,4′-piperidine)-1′-yl]-2-[2-(trifluoromethyl)phenoxy]ethanone]", "values": [{"measurement": "IC50", "setting": "human 11β-HSD1", "result": 0.049, "unit": "µM"}]}
{"compound": "CC1=Cc2ccccc2C12CCN(C(=O)COc1ccccc1C(F)(F)F)CC2", "note": "[Example 16, 1-[2-methylspiro(indene-1,4′-piperidine)-1′-yl]-2-[2-(trifluoromethyl)phenoxy]ethanone]", "values": [{"measurement": "IC50", "setting": "human 11β-HSD1", "result": 0.043, "unit": "µM"}]}
